Reference: patent publication US10021881B2, “Vaporized administration of pesticides” (priority 2016, dated 2018)

Tests used:
Penicillium expansum [1] = experiment: Fogging versus vaporizing treatment of apples, browning of top and bottom wounds; assay type: in vivo; settings: 2.66 g in tunnel, 72 hours at 21° C., evaluated 4 days after removal, FIG. 23
Protocol: An in vivo assay was used to evaluate the ability of vaporized pyrimethanil to control pathogenic infection of apples by Penicillium expansum as compared to fogging methods of apple treatment. Vaporized treatments of apples were performed as previous described in Examples 1-6, with the exception of using a 1 m wide×1 m high×8 m deep tunnel (FIG. 11). A 2.66 g amount of pyrimethanil was either fogged or vaporized into the tunnel. Fruits were exposed to the treatment for 72 hours at 21° C., and then removed from the tunnel and evaluated 4 days after removal in order to observe and/or determine the area of browning wounds at the top and bottom of the fruit (see FIG. 23).

Penicillium expansum [2] = experiment: In vivo assay of vaporized pyrimethanil to inhibit Penicillium expansum in apples
Protocol: An in vivo assay was used to evaluate the ability of vaporized pyrimethanil to control pathogenic infection of apples by Penicillium expansum. […] Each wound was then inoculated with 30 μL of 1×10^6 spores/mL suspension of P. expansum.
Fruits were evaluated in order to observe disease incidence (i.e., browning) and fungal sporulation diameter (both measured in millimeters, mm).

Penicillium expansum [3] = experiment: Drenching vs. vaporizing treatments of apples, browning; assay type: in vivo; settings: for Percent (%) Inhibition of Internal Browning: apples stored nine weeks at 1° C.
Protocol: An in vivo assay was used to evaluate the ability of vaporized pyrimethanil to control pathogenic infection of apples by Penicillium expansum as compared to drenching methods of apple treatment. Vaporized treatments of apples were performed as previous described in Examples 1-6, with the exception of using a 1 m wide×1 m high×8 m deep tunnel (see FIG. 11). […] In addition, drenching treatments comprising a final concentration of 125 mg/L, 500 mg/L, and 2000 mg/L of pyrimethanil active ingredient were also prepared. Fruits were stored for nine weeks at 1° C., and evaluated in order to observe and/or determine the area of browning on the fruit (see FIG. 22) and the percent of browning inhibition (see Table 7).

[4] = assay type: physicochemical
Protocol: This example relates to experiments performed to determine if degradation of pyrimethanil technical compounds observed at high temperatures was due to evaporation. In the present example, seven milligrams (7 mg) of pyrimethanil compounds 1 and 2 were analyzed in air by Thermo Gravity Analysis-Mass Spectrometry (TGA-MS). The pyrimethanil samples were loaded onto a TGA platinum pan of the Q5000 TGA instrument (TA instruments) and using standard TGA test methods as follows: select gas 2 (air), data storage on, ramp at 5° C. per minute to 100° C., isothermal for 180 mins, data storage off, equilibrate at 60° C., and end method. An isothermal method was also performed according to standard methods.
The TGA furnace was closed and purged with helium, then heated from room temperature to about 300° C. at 10° C. per minute. […] An isothermal method was also performed according to standard methods.

[5] = Agriphar Pyrimethanil (ISO) Safety Data Sheet; cited from earlier work
Botrytis cinerea = experiment: In vivo assay of vaporized pyrimethanil to inhibit Botrytis cinerea in grapes; settings: for Gray Mold Severity (0-4): scale 0 no disease to 4 exceptionally high
Excerpt: An in vivo assay was used to evaluate the ability of vaporized pyrimethanil to control pathogenic infection of Table grapes by Botrytis cinerea.

[6] = Particle size estimate from settling of fogged or vaporized pyrimethanil on Petri plates (HPLC); assay type: physicochemical; settings: for estimated pyrimethanil particle size: vaporized
[7] = 0.04 mg/L, Day 0 (after 3 days at 21° C.)
[8] = 0.04 mg/L, Day 1 (after 3 days at 21° C.)
[9] = 0.04 mg/L, Day 2 (after 3 days at 21° C.)
[10] = 0.04 mg/L, Day 3 (after 3 days at 21° C.)
[11] = 0.2 mg/L, Day 0 (after 3 days at 21° C.)
[12] = 0.2 mg/L, Day 1 (after 3 days at 21° C.)
[13] = 0.2 mg/L, Day 2 (after 3 days at 21° C.)
[14] = 0.2 mg/L, Day 3 (after 3 days at 21° C.)
[15] = 1 mg/L, Day 0 (after 3 days at 21° C.)
[16] = 1 mg/L, Day 1 (after 3 days at 21° C.)
[17] = 1 mg/L, Day 2 (after 3 days at 21° C.)
[18] = 1 mg/L, Day 3 (after 3 days at 21° C.)
[19] = 0.01 mg/L, Day 0 (after 3 days at 21° C.)
[20] = 0.01 mg/L, Day 1 (after 3 days at 21° C.)
[21] = 0.01 mg/L, Day 2 (after 3 days at 21° C.)
[22] = 0.01 mg/L, Day 3 (after 3 days at 21° C.)
[23] = 0.03 mg/L, Day 0 (after 3 days at 21° C.)
[24] = 0.03 mg/L, Day 1 (after 3 days at 21° C.)
[25] = 0.03 mg/L, Day 2 (after 3 days at 21° C.)
[26] = 0.03 mg/L, Day 3 (after 3 days at 21° C.)
[27] = 0.1 mg/L, Day 0 (after 3 days at 21° C.)
[28] = 0.1 mg/L, Day 1 (after 3 days at 21° C.)
[29] = 0.1 mg/L, Day 2 (after 3 days at 21° C.)
[30] = 0.1 mg/L, Day 3 (after 3 days at 21° C.)
[31] = 0.3 mg/L, Day 0 (after 3 days at 21° C.)
[32] = 0.3 mg/L, Day 1 (after 3 days at 21° C.)
[33] = 0.3 mg/L, Day 2 (after 3 days at 21° C.)
[34] = 0.3 mg/L, Day 3 (after 3 days at 21° C.)

With `Cc1cc(C)nc(Nc2ccccc2)n1` [pyrimethanil, 4,6-Dimethyl-N-phenylpyrimidin-2-amine] the “browning at the bottom of the fruit, vaporized compared with fogged” value (Penicillium expansum [1]) was “much less area (mm) of browning”, the “browning on the top of the fruit, vaporized compared with fogged” value (Penicillium expansum [1]) was “comparable browning” and the “Browning (mm)” value (Penicillium expansum [2]; [7]) was 10.6 mm. The “Fungal Sporulation (mm)” value (Penicillium expansum [2]; [7]) was 2.6 mm, the “Browning (mm)” value (Penicillium expansum [2]; [8]) was 16.2 mm and the “Fungal Sporulation (mm)” value (Penicillium expansum [2]; [8]) was 2.1 mm. For the same compound, the “Browning (mm)” value (Penicillium expansum [2]; [9]) was 23.1 mm, the “Fungal Sporulation (mm)” value (Penicillium expansum [2]; [9]) was 2.8 mm and the “Browning (mm)” value (Penicillium expansum [2]; [10]) was 28.8 mm. For the same compound, the “Fungal Sporulation (mm)” value (Penicillium expansum [2]; [10]) was 3.1 mm, the “Browning (mm)” value (Penicillium expansum [2]; [11]) was 5.3 mm and the “Fungal Sporulation (mm)” value (Penicillium expansum [2]; [11]) was 0.3 mm. For the same compound, the “Browning (mm)” value (Penicillium expansum [2]; [12]) was 8.1 mm, the “Fungal Sporulation (mm)” value (Penicillium expansum [2]; [12]) was 0.8 mm and the “Browning (mm)” value (Penicillium expansum [2]; [13]) was 12.7 mm. The “Fungal Sporulation (mm)” value (Penicillium expansum [2]; [13]) was 1.4 mm, the “Browning (mm)” value (Penicillium expansum [2]; [14]) was 16.2 mm and the “Fungal Sporulation (mm)” value (Penicillium expansum [2]; [14]) was 2.6 mm. For the same compound, the “Browning (mm)” value (Penicillium expansum [2]; [15]) was 3.4 mm, the “Fungal Sporulation (mm)” value (Penicillium expansum [2]; [15]) was 0.1 mm and the “Browning (mm)” value (Penicillium expansum [2]; [16]) was 5.6 mm. For the same compound, the “Fungal Sporulation (mm)” value (Penicillium expansum [2]; [16]) was 0.7 mm, the “Browning (mm)” value (Penicillium expansum [2]; [17]) was 8.8 mm and the “Fungal Sporulation (mm)” value (Penicillium expansum [2]; [17]) was 0.8 mm. The “Browning (mm)” value (Penicillium expansum [2]; [18]) was 11.4 mm, the “Fungal Sporulation (mm)” value (Penicillium expansum [2]; [18]) was 1.6 mm and the “Percent (%) Inhibition of Internal Browning” value (shortened to “Percent (%) Inhibition”) (Penicillium expansum [3]; DRENCH, Treatment Rate 500 mg/L) was 47%. The “Percent (%) Inhibition” value (Penicillium expansum [3]; DRENCH, Treatment Rate 2,000 mg/L) was 69%, the “Percent (%) Inhibition” value (Penicillium expansum [3]; VAPOR, Treatment Rate 0.5 mg/L) was 96% and the “Percent (%) Inhibition” value (Penicillium expansum [3]; VAPOR, Treatment Rate 2 mg/L) was 100%. The “area of browning, vaporized compared with drenched” value (Penicillium expansum [3]; apples treated in a preventative manner, nine weeks at 1° C., FIG. 22) was “less area (mm) of browning”, the thermal degradation [4] was “no thermal degradation” and the “known thermal decomposition range” value [5] was 189.54-344.74 °C. The “Gray Mold Incidence (%)” value (Botrytis cinerea; [19]) was 100.0%, the “Gray Mold Severity (0-4)” value (Botrytis cinerea; [19]) was 1.6 and the “Gray Mold Incidence (%)” value (Botrytis cinerea; [20]) was 100.0%. The “Gray Mold Severity (0-4)” value (Botrytis cinerea; [20]) was 2.0, the “Gray Mold Incidence (%)” value (Botrytis cinerea; [21]) was 100.0% and the “Gray Mold Severity (0-4)” value (Botrytis cinerea; [21]) was 2.0. For the same compound, the “Gray Mold Incidence (%)” value (Botrytis cinerea; [22]) was 100.0%, the “Gray Mold Severity (0-4)” value (Botrytis cinerea; [22]) was 3.6 and the “Gray Mold Incidence (%)” value (Botrytis cinerea; [23]) was 100.0%. The “Gray Mold Severity (0-4)” value (Botrytis cinerea; [23]) was 1.4, the “Gray Mold Incidence (%)” value (Botrytis cinerea; [24]) was 100.0% and the “Gray Mold Severity (0-4)” value (Botrytis cinerea; [24]) was 2.0. For the same compound, the “Gray Mold Incidence (%)” value (Botrytis cinerea; [25]) was 100.0%, the “Gray Mold Severity (0-4)” value (Botrytis cinerea; [25]) was 2.0 and the “Gray Mold Incidence (%)” value (Botrytis cinerea; [26]) was 100.0%. The “Gray Mold Severity (0-4)” value (Botrytis cinerea; [26]) was 3.4, the “Gray Mold Incidence (%)” value (Botrytis cinerea; [27]) was 94.4% and the “Gray Mold Severity (0-4)” value (Botrytis cinerea; [27]) was 0.5. For the same compound, the “Gray Mold Incidence (%)” value (Botrytis cinerea; [28]) was 98.1%, the “Gray Mold Severity (0-4)” value (Botrytis cinerea; [28]) was 0.7 and the “Gray Mold Incidence (%)” value (Botrytis cinerea; [29]) was 98.1%. For the same compound, the “Gray Mold Severity (0-4)” value (Botrytis cinerea; [29]) was 1.1, the “Gray Mold Incidence (%)” value (Botrytis cinerea; [30]) was 98.1% and the “Gray Mold Severity (0-4)” value (Botrytis cinerea; [30]) was 1.8. For the same compound, the “Gray Mold Incidence (%)” value (Botrytis cinerea; [31]) was 16.7%, the “Gray Mold Severity (0-4)” value (Botrytis cinerea; [31]) was 0.1 and the “Gray Mold Incidence (%)” value (Botrytis cinerea; [32]) was 94.4%. For the same compound, the “Gray Mold Severity (0-4)” value (Botrytis cinerea; [32]) was 0.5, the “Gray Mold Incidence (%)” value (Botrytis cinerea; [33]) was 94.4% and the “Gray Mold Severity (0-4)” value (Botrytis cinerea; [33]) was 0.8. The “Gray Mold Incidence (%)” value (Botrytis cinerea; [34]) was 100.0%, the “Gray Mold Severity (0-4)” value (Botrytis cinerea; [34]) was 1.3 and the “percent of total pyrimethanil settled on the plates” value (“percent … on the plates” below) ([6]; FOG (MeOH + PYR), Settling Time 7.5 Minutes, Particle Size 5.9 (μm)) was 61%. The “percent … on the plates” value ([6]; FOG (MeOH + PYR), Settling Time 15 Minutes, Particle Size 4.1 (μm)) was 77%, the “percent … on the plates” value ([6]; FOG (MeOH + PYR), Settling Time 30 Minutes, Particle Size 2.8 (μm)) was 100% and the “percent … on the plates” value ([6]; FOG (MeOH + PYR), Settling Time 60 Minutes, Particle Size 1.9 (μm)) was 100%. The “percent … on the plates” value ([6]; FOG (MeOH + PYR), Settling Time 360 Minutes, Particle Size 0.75 (μm)) was 100%, the “percent … on the plates” value ([6]; VAPOR (100% Technical PYR), Settling Time 60 Minutes, Particle Size 1.9 (μm)) was 26% and the “percent … on the plates” value ([6]; VAPOR (100% Technical PYR), Settling Time 360 Minutes, Particle Size 0.75 (μm)) was 91%. The particle size ([6]; fog particles, 100% settled after 30 minutes) was “approximately 2.8 micron”, the “estimated pyrimethanil particle size” value ([6]; 26% settled after 60 minutes) was 1.9 micron and the “estimated pyrimethanil particle size” value ([6]; 91% settled after 360 minutes) was 0.75 micron.
